Laboratory results taken from the supplement of paper PMC11451515.

Key:
Test in all cases: AUC of viability dose-response curve (% viability x log10 dose units); higher = less sensitive
Conditions in all cases: 48 h
NOMO1 = system: NOMO1
How it was run: (§1)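 Leukemia cells adapted to each medium were seeded in 1536-well plates (500 or 1000 cells/well). They were dosed with library compounds in DMSO at 11 threefold doses, 47 μM to 0.79 nM, for 48 h at 37°C. CellTiter-Glo One luminescence was normalised per plate to DMSO and cell-free wells. Area under the curve was integrated by trapezoidal rule over log10 doses on a four-parameter log-logistic fit; curves exceeding full viability were scaled and curves failing quality control removed.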

P12-Ichikawa = system: P12-Ichikawa
How it was run: as §1

SEM cells = system: SEM cells
How it was run: as §1

[1] = RPMI 5 mM glucose + 10% dialyzed FBS

Structure (SMILES)	AUC of viability dose-response curve (NOMO1; HPLM + 10% dialyzed FBS)	AUC of viability dose-response curve (NOMO1; RPMI 5 mM glucose + 10% FBS)	AUC of viability dose-response curve (NOMO1; [1])	AUC of viability dose-response curve (P12-Ichikawa; HPLM + 10% dialyzed FBS)	AUC of viability dose-response curve (P12-Ichikawa; RPMI 5 mM glucose + 10% FBS)	AUC of viability dose-response curve (P12-Ichikawa; [1])	AUC of viability dose-response curve (SEM cells; HPLM + 10% dialyzed FBS)	AUC of viability dose-response curve (SEM cells; RPMI 5 mM glucose + 10% FBS)	AUC of viability dose-response curve (SEM cells; [1])
COc1ccc(CC2NCCc3cc(OC)c(OC)cc32)cc1OC (stereo not given)	451	427	407	459	416	420	397	390	403
Cc1c(CCOc2ccc(C(=O)O)cc2)c2cc(Cl)ccc2n1C(c1ccccc1)c1ccccc1	457	442	443	442	468	459	470	450	451
COC1=CC=CC2=C1C(=NC(=N2)C3=CC=CS3)NN4C(=O)\C=C(C)/C4=O	269	290	265	318	302	297	264	282	270
CCC(C)SSc1ncc[nH]1 (stereo not given)	416	426	432	441	418	393	377	361	323
COc1cc2nc(N(C)CCCNC(=O)C3CCCO3)nc(N)c2cc1OC (stereo not given)	336	297	331	416	431	384	358	355	378
O=C(NOCC(O)CO)c1cc(Br)c(F)c(F)c1Nc1ccc(I)cc1F (stereo not given)	238	244	219	361	333	345	327	340	306
O=C(OC)[C@]12CC[C@@]3(C)[C@]4(C)CC[C@H]5[C@@](C)(C)C(=O)C(=C[C@]5(C)C4=CC(=O)[C@@H]3[C@@H]2C[C@](C)(C)CC1)C#N	408	372	381	407	404	396	393	408	370
Cc1c(CN2CCN(C(=O)[C@H](C)O)CC2)sc2c(N3CCOCC3)nc(-c3cnc(N)nc3)nc12	318	352	308	401	338	345	285	304	284
CC(=O)Nc1ccc(OC[C@](C)(O)C(=O)Nc2ccc([N+](=O)[O-])c(C(F)(F)F)c2)cc1	375	388	404	416	384	383	346	399	411
CCC[C@H](NC(=O)/C(C#N)=C/c1cccc(Br)n1)c1ccccc1	437	454	448	449	447	444	–	–	–
O=C([O-])C(O)Cc1ccc(O)c(O)c1 (stereo not given)	447	416	434	453	452	438	398	413	387
COc1cc2c(cc1-c1c(C)noc1C)ncc1[nH]c(=O)n([C@H](C)c3ccccn3)c12	373	382	382	380	396	393	336	336	323
Nc1ccccc1NC(=O)c1ccc(CNC(=O)OCc2cccnc2)cc1	326	351	334	350	354	347	313	308	310
N=C(CCSCc1csc(N=C(N)N)n1)N[S+](N)(=O)[O-]	459	439	461	467	454	432	452	458	421
OC1=CC=C(C=C1)\C2=C\OC3=C(C=CC(=C3)O)C2=O	473	459	470	446	446	457	472	467	467
CCCCCCCCCCCCCCCCCCCCCCO	458	444	456	445	461	447	444	460	447
CCc1cc(Nc2nccc(-c3c(-c4ccc(OC)c(C(=O)Nc5c(F)cccc5F)c4)nc4ccccn34)n2)c(OC)cc1N1CCC(N2CCN([S+](C)(=O)[O-])CC2)CC1	459	464	457	453	451	453	423	435	386
CCc1cncnc1N1CCN(Cc2nc3cc(C(F)(F)F)ccc3[nH]2)CC1	462	425	426	445	437	451	429	425	426
C[C@H]1[C@H](NC(=O)/C(=N/OC(C)(C)C(=O)O)c2csc(N)n2)C(=O)N1[S+](=O)([O-])O	455	475	445	470	471	467	468	471	450
CN[S+](=O)([O-])Cc1ccc2[nH]cc(CCN(C)C)c2c1	454	443	454	467	457	460	442	431	456
COc1nccc(-c2c(-c3ccc(F)cc3)ncn2C2CCNCC2)n1	–	–	–	452	455	453	460	375	454
CNC(=O)c1ccc(-c2cnc3ncc(Cc4ccc5ncccc5c4)n3n2)cc1F	460	454	449	469	461	460	458	466	463
CC(C)C(C)/C=C/C(C)C1CCC2C3=CC=C4CC(O)CCC4(C)C3CCC21C (stereo not given)	474	426	445	460	468	457	383	454	458

Structure (SMILES)	AUC of viability dose-response curve (NOMO1; HPLM + 10% dialyzed FBS)	AUC of viability dose-response curve (NOMO1; RPMI 5 mM glucose + 10% FBS)	AUC of viability dose-response curve (NOMO1; [1])	AUC of viability dose-response curve (P12-Ichikawa; HPLM + 10% dialyzed FBS)	AUC of viability dose-response curve (P12-Ichikawa; RPMI 5 mM glucose + 10% FBS)	AUC of viability dose-response curve (P12-Ichikawa; [1])	AUC of viability dose-response curve (SEM cells; HPLM + 10% dialyzed FBS)	AUC of viability dose-response curve (SEM cells; RPMI 5 mM glucose + 10% FBS)	AUC of viability dose-response curve (SEM cells; [1])
CC(C)NCC(O)COc1ccc(COCCOC(C)C)cc1 (stereo not given)	458	461	459	457	463	463	468	474	469
COC1CCC(CC1)N(C(=O)C2CCC(C)CC2)C3=C(SC(=C3)\C4=C\CCCC4)C(O)=O (stereo not given)	442	446	454	438	451	450	455	449	441
COC1=CC=CC=C1C2=CC=CC(=C2)C/3=C(O)/C4=CC(=C(Cl)C=C4NC3=O)C#N	368	401	400	361	388	380	350	288	344
COc1c(C)cnc(Cn2cnc3c(Cl)nc(N)nc32)c1C	322	324	323	376	334	340	306	293	306
C[C@@H](NC1=CC=CC=C1C(O)=O)C/2=C/C(=C\N3C(=O)/C=C(\N=C23)N4CCOCC4)C	338	331	336	407	359	370	–	–	–
CC(=O)O.Cc1c(-c2ccc(O)cc2)n(Cc2ccc(OCCN3CCCCCC3)cc2)c2ccc(O)cc12	472	446	469	472	459	446	449	423	418
CC1=C(/C=C/C(C)=C/C=C/C(C)=C/C=C/C=C(C)/C=C/C=C(C)/C=C/C2=C(C)CCCC2(C)C)C(C)(C)CCC1	450	444	459	469	465	440	477	458	474
CCCCCOC(=O)NC\1=N\C(=O)N(\C=C1F)[C@@H]2O[C@H](C)[C@@H](O)[C@H]2O	413	434	458	460	443	442	468	466	469
NC(=O)c1cnc(N[C@@H]2CCCC[C@@H]2N)nc1Nc1cccc(-n2nccn2)c1	457	457	453	468	462	471	419	420	428
OC(=O)C1=CC=C(NC2=NC3=C(C\N=C(/C4=CC(=CC=C34)Cl)C5=C(F)C=CC=C5F)C=N2)C=C1	394	343	362	344	345	353	389	373	365
Cc1cc(OCCCc2c(C(=O)O)n(Cc3cccnc3)c3c(-c4c(COc5ccc(N6CCN([S+](C)(=O)[O-])CC6)cc5)nn(C)c4C)cccc23)cc(C)c1Cl	452	418	443	452	441	446	441	441	439
COc1ccc(C[C@@H](C)[C@@H](C)Cc2ccc(OC)c(OC)c2)cc1OC	326	315	328	355	353	354	336	364	320
C=C(C)[C@@H]1CC[C@]2(C(=O)O)CC[C@]3(C)[C@H](CC[C@@H]4[C@@]5(C)CC[C@H](O)C(C)(C)[C@@H]5CC[C@]43C)[C@@H]12	452	473	466	445	461	427	420	410	397
COC1=NC(=NC(=C1N\C2=N\CCN2)Cl)C	446	429	418	413	450	424	420	380	426
CC(C)[C@@H](N(CCCN)C(=O)C1=CC=C(C)C=C1)C/2=N/C3=CC(=CC=C3C(=O)N2CC4=CC=CC=C4)Cl	123	82.4	106	61	66.9	97.9	–	–	–
CCCCn1c(=O)n(Cc2ccccc2F)c(=O)c2nc(Cc3ccc(NC(C)=O)cc3)[nH]c21	–	–	–	425	409	410	452	442	444
COc1cccc2cc(-c3nc(C4CCC(C(=O)O)CC4)n4ncnc(N)c34)[nH]c12 (stereo not given)	338	358	359	292	307	308	315	327	329
COC1=CC2=NC=CC(=C2C=C1)OC3=CN=C(NC(=O)C/4=C(C)/N(CC(C)(C)O)N(C4=O)C5=CC=CC=C5)C=C3	430	431	411	425	414	420	–	–	–
CC(=O)O[C@H]1C(=O)[C@]2(C)[C@@H](O)C[C@H]3OC[C@@]3(OC(C)=O)C2[C@H](OC(=O)C4=CC=CC=C4)[C@]5(O)C[C@H](OC(=O)[C@H](O)[C@@H](NC(=O)C6=CC=CC=C6)C7=CC=CC=C7)\C(=C1/C5(C)C)C (stereo not given in full)	–	–	–	148	143	195	–	–	–
CO[C@H]1/C=C/O[C@@]2(C)Oc3c(C)c(O)c4c(O)c(c5c(nc6cc(C)ccn65)c4c3C2=O)NC(=O)/C(C)=C\C=C\[C@H](C)[C@H](O)[C@@H](C)[C@@H](O)[C@@H](C)[C@H](OC(C)=O)[C@@H]1C	–	–	–	–	–	–	410	394	375
Cc1nc(NC(=O)N2CCC[C@H]2C(N)=O)sc1-c1ccnc(C(C)(C)C(F)(F)F)c1	–	–	–	424	386	399	384	431	400
CCCc1nc(C(C)(C)O)c(C(=O)O)n1Cc1ccc(-c2ccccc2-c2nn[nH]n2)cc1	439	454	461	448	452	413	–	–	–
CN(CC#C)C/C1=C/C2=CC=CC=C2OC3=CC=CC=C13	401	400	407	417	407	400	–	–	–
